Measurements as given in US20240158446A1, “CYCLIC COMPOUND HAVING SELECTIVE INHIBITORY ACTION ON KRAS OVER HRAS AND NRAS” (CHUGAI SEIYAKU KABUSHIKI KAISHA, priority 2021, published 2024).

Key:
[1] = biological target: GDP-bound KRAS wild-type protein (Homo sapiens, UniProt P01116); test: Binding to KRAS by surface plasmon resonance (SPR), Single Cycle Kinetics; conditions: SPR Single Cycle Kinetics, GDP-bound KRAS wild-type protein, 1:1 binding model; read-out: KRAS KD
[2] = biological target: GDP-bound NRAS wild-type protein (Homo sapiens, UniProt P01111); test: Binding to NRAS by surface plasmon resonance (SPR), Single Cycle Kinetics; conditions: SPR KD ratio NRAS/KRAS, class symbols
Sequence of GDP-bound NRAS wild-type protein (P01111 whole entry): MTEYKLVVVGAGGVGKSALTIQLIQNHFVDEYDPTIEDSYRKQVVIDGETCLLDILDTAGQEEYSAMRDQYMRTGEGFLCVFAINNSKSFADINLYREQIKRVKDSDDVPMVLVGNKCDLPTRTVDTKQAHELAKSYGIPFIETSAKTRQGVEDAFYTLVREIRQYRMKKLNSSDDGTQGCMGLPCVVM

[3] = biological target: GDP-bound HRAS wild-type protein (Homo sapiens, UniProt P01112); test: Binding to HRAS by surface plasmon resonance (SPR), Single Cycle Kinetics; conditions: SPR KD ratio HRAS/KRAS, class symbols
Sequence of GDP-bound HRAS wild-type protein (P01112 whole entry): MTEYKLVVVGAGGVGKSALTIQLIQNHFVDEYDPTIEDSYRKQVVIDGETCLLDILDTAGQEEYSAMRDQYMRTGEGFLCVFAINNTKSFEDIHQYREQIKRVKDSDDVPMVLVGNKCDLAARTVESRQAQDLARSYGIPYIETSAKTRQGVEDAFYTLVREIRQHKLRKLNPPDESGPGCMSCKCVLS

[4] = test system: human lung cancer strain NCI-H441;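 note: cell proliferation inhibition after four days measured by CellTiter-Glo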

Sequence of GDP-bound KRAS wild-type protein (P01116 whole entry): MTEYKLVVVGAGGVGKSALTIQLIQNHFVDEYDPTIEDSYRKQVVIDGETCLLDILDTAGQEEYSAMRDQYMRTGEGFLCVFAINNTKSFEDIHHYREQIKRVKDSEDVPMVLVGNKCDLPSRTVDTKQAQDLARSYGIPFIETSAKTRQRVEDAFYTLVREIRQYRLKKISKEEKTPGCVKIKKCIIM

| Kd [1] | IC50 [4] | SMILES | NRAS/KRAS (ratio of KD value with respect to GDP-bound NRAS wild-type protein to KD value with respect to KRAS) [2] | HRAS/KRAS (ratio of KD value with respect to GDP-bound HRAS wild-type protein to KD value with respect to KRAS) [3] |
| --- | --- | --- | --- | --- |
| 2.8 nM | 185 nM | CCO[C@@H]1C[C@H]2C(=O)NC3(CC(C)(C)C3)C(=O)N(C)[C@@H](C(CC)CC)C(=O)N(C)[C@H](C(=O)N(C)C)CC(=O)N(C)[C@@H](COC)C(=O)N[C@@H]([C@@H](C)CC)C(=O)N(C3CC3)CC(=O)N(C)[C@H]3C/C=C\CCN(C3=O)[C@@H](CC3CCC(F)(F)CC3)C(=O)N(C)CC(=O)N[C@@H](CCc3ccc(Cl)c(Cl)c3)C(=O)N2C1 [PP2569] | AA (a compound having 20 or more is denoted as AA) | A (a compound having 10 or more and less than 20 is denoted as A) |
| 0.39 nM | 8.9 nM | CCC[C@H]1C(=O)N[C@@H]([C@@H](C)CC)C(=O)N(C2CC2)CC(=O)N(C)[C@H]2C/C=C\CCN(C2=O)[C@@H](Cc2ccc(C)cc2)C(=O)N(C)CC(=O)N[C@@H](CCc2cc(F)c(C(F)(F)F)c(F)c2)C(=O)N2C[C@H](OC(C)C)C[C@H]2C(=O)NC2(CC(C)(C)C2)C(=O)N(C)[C@@H](C2CCCC2)C(=O)N(C)[C@H](C(=O)N(C)C)CC(=O)N1C [PP2570] | A (a compound having 10 or more and less than 20 is denoted as A) | A (a compound having 10 or more and less than 20 is denoted as A) |
| 1 nM | 76.1 nM | CCC[C@H]1C(=O)N[C@@H]([C@@H](C)CC)C(=O)N(C2CC2)CC(=O)N(C)[C@H]2C/C=C\CCN(C2=O)[C@@H](Cc2ccc(C)cc2)C(=O)N(C)CC(=O)N[C@@H](CCc2ccc(Cl)c(Cl)c2)C(=O)N2C[C@H](OC(C)C)C[C@H]2C(=O)NC2(CC(C)(C)C2)C(=O)N(C)[C@@H](C2CCCC2)C(=O)N(C)[C@H](C(=O)N(C)C)CC(=O)N1C [PP2571] | A (a compound having 10 or more and less than 20 is denoted as A) | A (a compound having 10 or more and less than 20 is denoted as A) |
| 1.2 nM | 82.7 nM | CCC(CC)[C@H]1C(=O)N(C)[C@H](C(=O)N(C)C)CC(=O)N(C)[C@@H](COC)C(=O)N[C@@H]([C@@H](C)CC)C(=O)N(C2CC2)CC(=O)N(C)[C@H]2C/C=C\CCN(C2=O)[C@@H](Cc2ccc(C)cc2)C(=O)N(C)CC(=O)N[C@@H](CCc2cc(F)c(C(F)(F)F)c(F)c2)C(=O)N2C[C@H](OC(C)C)C[C@H]2C(=O)NC2(CC(C)(C)C2)C(=O)N1C [PP2572] | A (a compound having 10 or more and less than 20 is denoted as A) | A (a compound having 10 or more and less than 20 is denoted as A) |

Second part, the molecule before the results:

| SMILES | Kd [1] | IC50 [4] | NRAS/KRAS (ratio of KD value with respect to GDP-bound NRAS wild-type protein to KD value with respect to KRAS) [2] | HRAS/KRAS (ratio of KD value with respect to GDP-bound HRAS wild-type protein to KD value with respect to KRAS) [3] |
| --- | --- | --- | --- | --- |
| CCO[C@@H]1C[C@H]2C(=O)NC3(CC(C)(C)C3)C(=O)N(C)[C@@H](C(CC)CC)C(=O)N(C)[C@H](C(=O)N3CCCCC3)CC(=O)N(C)[C@@H](COC)C(=O)N[C@@H]([C@@H](C)CC)C(=O)N(C)CC(=O)N(C)[C@H]3C/C=C\CCN(C3=O)[C@@H](Cc3ccc(C(F)(F)F)cc3)C(=O)N(C)CC(=O)N[C@@H](CCc3cc(F)c(C(F)(F)F)c(F)c3)C(=O)N2C1 [PP2606] | 0.81 nM | 68.7 nM | AA (a compound having 20 or more is denoted as AA) | AA (a compound having 20 or more is denoted as AA) |
| CCC(CC)[C@H]1C(=O)N(C)[C@H](C(=O)N2CCCCC2)CC(=O)N(C)[C@@H](COC)C(=O)N[C@@H]([C@@H](C)CC)C(=O)N(C)CC(=O)N(C)[C@H]2C/C=C\CCN(C2=O)[C@@H](Cc2ccc(C(F)(F)F)cc2)C(=O)N(C)CC(=O)N[C@@H](CCc2cc(F)c(C(F)(F)F)c(F)c2)C(=O)N2C[C@H](OC(C)C)C[C@H]2C(=O)NC2(CC(C)(C)C2)C(=O)N1C [PP2608] | 1.4 nM | 53 nM | AA (a compound having 20 or more is denoted as AA) | A (a compound having 10 or more and less than 20 is denoted as A) |
